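In this assay, cells in 96-well plates receive the compound at five concentrations for 48 hours. Endpoints are linearly interpolated between the surrounding concentrations. Definition used: TGI = concentration required for complete inhibition of growth.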
Columns and labels:
Assay in all cases: inhibition of tumour cell growth, NCI panel, 48 h
[1] = test system: CCRF-CEM leukemia
[2] = test system: COLO 205 colon
[3] = test system: DU-145 prostate
[4] = test system: HL-60(TB) leukemia
[5] = test system: HOP-62 NSCLC
[6] = test system: HS 578T breast
[7] = test system: IGROV1 ovarian
[8] = test system: LOX IMVI melanoma
[9] = test system: MALME-3M melanoma
[10] = test system: OVCAR-3 ovarian
[11] = test system: RPMI-8226 leukemia
[12] = test system: SK-MEL-5 melanoma
[13] = test system: SK-OV-3 ovarian
[14] = test system: SN12C renal
[15] = test system: SNB-19 CNS
[16] = test system: SR leukemia
[17] = test system: SW-620 colon
[18] = test system: TK-10 renal
[19] = test system: NCI-H522 lung

Measured: TGI

NCCCc1nonc1C(=O)O
not listed: [19]
> 100 µM: all other assays above

Cc1cccc2c(=O)c3cccc(CC(=O)O)c3oc12
not listed: [3]
> 100 µM: all other assays above

COc1ccc(Cc2c3cc(OC)c(OC)cc3cc[n+]2C)cc1
> 28.3 µM: [14]
> 85.9 µM: [19]
> 60.3 µM: [9]
> 16.7 µM: [2]
> 31.4 µM: [15]
> 47.3 µM: [13]
> 62.2 µM: [12]
> 65.1 µM: [18]
> 48.7 µM: [5]
> 24.7 µM: [8]
36.2 µM: [10]
> 69.4 µM: [7]
not listed: [3] | [6]
> 100 µM: all other assays above

COc1cc(/C=C(\C#N)C(=O)c2ccccc2)cc(OC)c1OC
not listed: [3] | [6] | [7]
> 100 µM: all other assays above

N#Cc1nc(CCC(C(=O)O)N2C(=O)c3ccccc3C2=O)oc1N (stereo unspecified)
not listed: [8]
> 100 µM: all other assays above

Nc1cc2c(C3OC(CO)C(O)C3O)[nH]nc2c(=S)[nH]1 (stereo unspecified)
not listed: [3] | [6] | [8] | [10] | [18]
> 100 µM: all other assays above

CSc1cnc2ccccc2c1Sc1cn(C)c2ccccc2c1=O
44.5 µM: [13]
57.3 µM: [5]
95.5 µM: [10]
83.3 µM: [15]
not listed: [3] | [6] | [19]
> 100 µM: all other assays above

C[C@H](O)CCC(=O)c1ccoc1
not listed: [3] | [6]
> 100 µM: all other assays above

CCCCc1c2c([n+]([O-])c3c1CCCC3)CCCC2
5.33 µM: [19]
not listed: [3] | [6]
> 100 µM: all other assays above

O=C1OCC2=C1C(c1ccc(Cl)cc1)c1cc3c(cc1O2)OCO3 (stereo unspecified)
> 31.6 µM: [16]
> 72.2 µM: [6]
> 35.4 µM: [5]
12.8 µM: [4]
not listed: [19]
> 100 µM: all other assays above

COC(=O)c1c(C(=O)OC)c2ccccn2c1-c1cc(C)cc2c1C(=O)C=CC2=O
24.2 µM: [6]
20.1 µM: [3]
5.04 µM: [4]
17.6 µM: [14]
21.7 µM: [5]
15.6 µM: [10]
15 µM: [9]
3.65 µM: [1]
17 µM: [12]
8.53 µM: [16]
17.3 µM: [7]
18.4 µM: [18]
8.21 µM: [17]
8.9 µM: [11]
18.6 µM: [15]
13.4 µM: [2]

Cc1nnc(NS(=O)(=O)c2ccc(N=Nc3c(O)c(C(=O)O)cc4ccccc34)cc2)s1
not listed: [8]
> 100 µM: all other assays above

Cc1[nH]n(C(=O)Cc2ccccc2)c(=O)c1/C=C1\C(=O)C=Cc2ccccc21
93.4 µM: [1]
40.2 µM: [9]
93 µM: [8]
not listed: [3] | [6] | [7] | [13]
> 100 µM: all other assays above

O=C(O)OC12CCCCCC1C(=O)C1CCCCC12 (stereo unspecified)
not listed: [3] | [6] | [7] | [10]
> 100 µM: all other assays above

COc1ccc(C2OC2C(=O)C23CC4CC(CC(C4)C2)C3)cc1 (stereo unspecified)
97.2 µM: [4]
50.4 µM: [6]
not listed: [2] | [13] | [16]
> 100 µM: all other assays above

CCn1c(O)c(C(=O)Nc2cccs2)c(=O)n(CC)c1=S
77.9 µM: [13]
60.9 µM: [7]
69.3 µM: [18]
38.5 µM: [12]
38.4 µM: [19]
70.8 µM: [14]
38.6 µM: [9]
56.2 µM: [17]
40 µM: [4]
> 100 µM: [1] | [16]
32.2 µM: [2] | [10]
55.1 µM: [11]
33.3 µM: [8]
48 µM: [15]
47.6 µM: [5]

O=C1/C(=C/c2ccc(Cl)cc2)NC(=S)N1CN1CCCCC1
78.2 µM: [1]
49.3 µM: [19]
68.7 µM: [15]
45.3 µM: [17]
88.7 µM: [9]
62 µM: [6]
97.4 µM: [12]
76.5 µM: [11]
64.1 µM: [2]
not listed: [4]
> 100 µM: all other assays above

COC(=O)N1C=Cc2c(c(C)c3c([nH]c4ccccc43)c2C)C1C (stereo unspecified)
30.9 µM: [10]
57.3 µM: [13]
34.4 µM: [2]
33.7 µM: [8]
34.5 µM: [5]
38.9 µM: [17]
48.7 µM: [7]
52 µM: [4]
38.2 µM: [11]
54.4 µM: [1]
36.3 µM: [9]
31.1 µM: [12]
35.9 µM: [18]
35.6 µM: [15]

CCCCCCCCCCCCCCCCCCCCCCC(=O)N[C@H]1CCc2cc(OC)c(OC)c(OC)c2-c2ccc(SC)c(=O)cc21
31.9 µM: [2]
81.9 µM: [16]
33.1 µM: [19]
60.4 µM: [10]
48.9 µM: [4]
53.6 µM: [13]
not listed: [3] | [6] | [8] | [11]
> 100 µM: all other assays above

NC(Cc1c2ccccc2cc2ccccc12)C(=O)O (stereo unspecified)
not listed: [6] | [11]
> 100 µM: all other assays above

N#CC(NNC(=O)c1ccccc1O)c1ccccc1O (stereo unspecified)
96.1 µM: [9]
42.3 µM: [12]
97.3 µM: [8]
not listed: [3] | [6] | [15]
> 100 µM: all other assays above

CC1=C(C(N)=O)C(c2ccncc2)C(C#N)C(=O)N1 (stereo unspecified)
not listed: [9] | [10] | [14] | [19]
> 100 µM: all other assays above

Reference: PubChem BioAssay (NCI)
